# “Also recorded” adds a separate entry of the source.
# Legend:
# human estrogen receptor [1] = test: ER transcriptional activity on MMTV-ERE-LUC, CV-1 cells, ER co-expressed with PR-A; type: cell-based
# Method: (§1) All values were normalized for transfection efficiency by simultaneous estimation of luciferase and β-galactocidase activities. The relative luciferase activity is calculated by dividing the normalized luciferase value at a given point by that obtained in the absence of transfected receptor or ligand. Data shown represent the mean +/- the average deviation from the mean of triplicate estimations.
# (§2) Experimental protocols and data calculation are as described in FIG. 11. The experiment detailed above is representative of independent assays (N>3). Data shown represent the mean +/- the average deviation from the mean of triplicate estimations.
# Vegeto et al., supra. Cells were plated into 96-well tissue culture plates. The vector DNA was introduced into the CV-1 cells using calcium phosphate coprecipitation as described herein. More specifically, 20 μg of DNA/ml of transfection buffer were used in each transfection. Each transfection mix included 0.5 μg of pRST7hER, 9.5 μg of MMTV-ERE-LUC, 5 μg of pCH110, (which contains the gene for β-galactosidase) as an internal control and 5 μg of PGEM4 DNA as a carrier. Depending on the experiment, 0.1 μg pSVhPR-A or pSVhPR-B and an amount of pSVXV2neo (Dr. Bert O'Malley, Baylor College of Medicine) to bring the total amount of DNA to 20 μg was added. The concentration of pXVhPR-A vector chosen was determined by performing the experiment at several different concentrations of vector, and then using that concentration that was optimal for transcriptional readout. The concentration of pSVhPR-B vector was chosen based upon the amount required to give an identical amount of immunoreactive PR-A and PR-B. After transfections using a Biomek 1000 automated laboratory workstation, the cells were incubated with the precipitate for 6 hours. Cells were washed with PBS and incubated for 40 hours with or without hormones as indicated. Cell extracts were prepared as previously described herein and assayed for luciferase (LUC) and β-galactosidase activities. The Normalized LUC activity was calculated by dividing the raw luciferase (×10^4) units for each point by the β-galactosidase activity [(OD415 nm ×10^5)/time min.] at that point.
# human estrogen receptor [2] = biological target: T1, human estrogen receptor (Homo sapiens, UniProt P03372); test: ER transcriptional activity on MMTV-ERE-LUC, CV-1 cells, ER alone; type: cell-based; conditions: 10^-7 M 17-β-estradiol, FIG. 11B
# T1 construct: expressed in transfected cells; host or cells: CV-1
# T1 sequence (P03372 1-595): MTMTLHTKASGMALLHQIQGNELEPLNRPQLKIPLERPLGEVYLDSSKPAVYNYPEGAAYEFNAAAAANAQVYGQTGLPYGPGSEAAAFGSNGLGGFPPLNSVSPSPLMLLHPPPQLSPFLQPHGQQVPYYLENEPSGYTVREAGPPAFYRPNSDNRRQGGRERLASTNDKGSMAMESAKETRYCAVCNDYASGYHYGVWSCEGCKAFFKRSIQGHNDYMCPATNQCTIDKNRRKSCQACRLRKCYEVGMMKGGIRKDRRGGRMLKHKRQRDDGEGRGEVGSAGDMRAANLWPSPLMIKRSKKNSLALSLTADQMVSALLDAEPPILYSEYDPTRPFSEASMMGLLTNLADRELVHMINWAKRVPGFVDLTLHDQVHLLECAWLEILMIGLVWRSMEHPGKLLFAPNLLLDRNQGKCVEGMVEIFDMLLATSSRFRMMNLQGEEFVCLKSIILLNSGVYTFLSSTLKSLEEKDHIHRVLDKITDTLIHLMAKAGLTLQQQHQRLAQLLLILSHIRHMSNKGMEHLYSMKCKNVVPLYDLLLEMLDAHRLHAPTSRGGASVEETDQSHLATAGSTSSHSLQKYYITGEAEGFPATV
# Method: as §1, §2
# (§3) Vegeto et al., supra. Cells were plated into 96-well tissue culture plates. The vector DNA was introduced into the CV-1 cells using calcium phosphate coprecipitation as described herein. More specifically, 20 μg of DNA/ml of transfection buffer were used in each transfection. […] The concentration of pXVhPR-A vector chosen was determined by performing the experiment at several different concentrations of vector, and then using that concentration that was optimal for transcriptional readout. […] The Normalized LUC activity was calculated by dividing the raw luciferase (×10^4) units for each point by the β-galactosidase activity [(OD415 nm ×10^5)/time min.] at that point.
# human estrogen receptor [3] = biological target: T1, human estrogen receptor; test: ER transcriptional activity on MMTV-ERE-LUC, CV-1 cells, ER co-expressed with PR-B; type: cell-based; conditions: FIG. 11B
# Method: as §1
# as §3, with “transfection. Each transfection mix included 0.5 μg of pRST7hER, 9.5 μg of MMTV-ERE-LUC, 5 μg of pCH110, (which contains the gene for β-galactosidase) as an internal control and 5 μg of PGEM4 DNA as a carrier.” for “transfection.”
# [4] = tested on: glucocorticoid receptor (GR); test: GR transcriptional activity on MMTV-LUC, CV-1 cells, GR co-expressed with PR-A; type: cell-based
# Method: (§4) Cells were seeded in 12-well, 96-well or 10 cm tissue culture plates. […] 20 μg of DNA/ml of transfection buffer were used in each transfection reaction. In this mix, the concentration of the luciferase plasmids and that of the internal control plasmid pCH110 (Pharmacia, Inc.), which contains the gene for the β-galactosidase enzyme, remained constant ([…] of each plasmid DNA), while the receptor plasmid concentration varied as indicated for each experiment. Different amounts of receptor parental plasmid, pSV2-neo (Dr. Bert O'Malley, Baylor College of Medicine, Houston, Tex.) was included to keep constant the total amount of the SV40 enhancer vectors. pGEM4 plasmid DNA (Promega Biotech, Madison, Wis.) was added to balance the total DNA concentration to 20 g/reaction. For the 96-well plate experiments, transfections were performed on a Biomek 1000 Automated Laboratory Workstation (Beckman Instruments, Fullerton, Calif.).
# (§5) Cells were seeded 24 hours prior to transfection in the fiat-bottom tissue culture plates ([…]) in phenol red-free DMEM containing 10% FCS. […] Using calcium phosphate co-precipitation, DNA solution was added dropwise with vortexing into an equal volume of 2X HBS pH 6.9 (280 mM NaCl. 50 mM HEPES, 1.5 mM Na2 HPO4) and precipitates were allowed to form for 20 minutes. Cells were transfected ( […] of DNA mix/well) for 6 hours and then washed with phosphate-bufferedsaline (PBS) to remove the precipitate. Cells were incubated for an additional 24 hours in phenol red-free medium containing 10% charcoal-treated FCS, with or without hormones as indicated in the text. Cell extracts were prepared as described by Berger et al., Supra, and assayed for luciferase and β-galactosidase activities. All determinations were performed in triplicates in at least two independent experiments, and were normalized for transfection efficiency by using β-galactosidase as an internal control.
# AR = conditions: stated without data; cited from earlier work
# human androgen receptor [5] = biological target: T2, human androgen receptor (Homo sapiens, UniProt P10275); test: AR transcriptional activity on MMTV-LUC, CV-1 cells, AR alone; type: cell-based; conditions: FIG. 10
# T2 sequence (P10275 1-920): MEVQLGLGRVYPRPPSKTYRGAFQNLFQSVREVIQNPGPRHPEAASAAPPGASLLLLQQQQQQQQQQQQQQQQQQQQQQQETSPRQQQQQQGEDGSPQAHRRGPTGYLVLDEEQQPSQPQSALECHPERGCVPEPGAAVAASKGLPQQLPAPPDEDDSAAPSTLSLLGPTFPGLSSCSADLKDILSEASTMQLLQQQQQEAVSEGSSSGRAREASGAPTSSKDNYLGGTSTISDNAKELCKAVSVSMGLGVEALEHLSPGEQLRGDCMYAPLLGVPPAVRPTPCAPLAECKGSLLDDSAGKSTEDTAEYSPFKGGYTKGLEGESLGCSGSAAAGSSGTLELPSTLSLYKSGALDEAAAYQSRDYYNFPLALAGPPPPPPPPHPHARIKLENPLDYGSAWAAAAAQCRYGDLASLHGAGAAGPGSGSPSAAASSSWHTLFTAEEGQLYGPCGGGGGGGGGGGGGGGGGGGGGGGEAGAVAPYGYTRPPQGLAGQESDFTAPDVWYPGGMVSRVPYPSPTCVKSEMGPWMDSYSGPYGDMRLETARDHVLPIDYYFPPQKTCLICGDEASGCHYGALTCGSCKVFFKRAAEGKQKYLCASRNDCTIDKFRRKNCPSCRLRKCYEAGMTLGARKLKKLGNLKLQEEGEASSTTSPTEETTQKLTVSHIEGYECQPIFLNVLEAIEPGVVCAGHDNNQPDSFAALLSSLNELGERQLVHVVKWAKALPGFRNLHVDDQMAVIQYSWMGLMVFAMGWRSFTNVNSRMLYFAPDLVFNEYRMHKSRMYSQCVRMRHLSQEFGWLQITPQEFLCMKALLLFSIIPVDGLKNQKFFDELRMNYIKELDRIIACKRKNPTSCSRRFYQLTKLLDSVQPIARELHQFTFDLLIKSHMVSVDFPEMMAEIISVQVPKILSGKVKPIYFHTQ
# Method: (§6) FIGS. 10A-10B are a series of graphs showing CV-1 cells that were transiently transfected with an expression vector for the human androgen receptor (pRShAR) alone, or in combination with phPR-A together with 5 µg/ml of the MMTV-LUC reporter and 5 µg/ml of pCH110 as an internal control. […] The relative luciferase activity is calculated by dividing the normalized luciferase value at a given point by that obtained in the absence of transfected receptor or ligand. […] The data are presented as percent (%) activation, where 100% represents the maximal induction achieved by human androgen receptor at 10^ -8 M DHT. The experimental data represents mean values +/- the average deviation from the mean of quadruplicate estimations;
# (§7) Cells were seeded in 12-well, 96-well or 10 cm tissue culture plates. […] 20 μg of DNA/ml of transfection buffer were used in each transfection reaction. In this mix, the concentration of the luciferase plasmids and that of the internal control plasmid pCH110 (Pharmacia, Inc.), which contains the gene for the β-galactosidase enzyme, remained constant ([…] of each plasmid DNA), while the receptor plasmid concentration varied as indicated for each experiment. […]
# PR = conditions: cited from earlier work
# ER = ER transcriptional activity on MMTV-ERE-LUC in HepG2 and HS578T cells; type: cell-based; conditions: data not shown
# human androgen receptor [6] = biological target: T2, human androgen receptor; test: AR transcriptional activity on MMTV-LUC, CV-1 cells, AR co-expressed with PR-A; type: cell-based; conditions: AR plus PR-A, FIG. 10B
# Method: as §6, §7
# [7] = biological target: T3, glucocorticoid receptor (GR) (Homo sapiens, UniProt P04150)
# T3 sequence (P04150 1-777): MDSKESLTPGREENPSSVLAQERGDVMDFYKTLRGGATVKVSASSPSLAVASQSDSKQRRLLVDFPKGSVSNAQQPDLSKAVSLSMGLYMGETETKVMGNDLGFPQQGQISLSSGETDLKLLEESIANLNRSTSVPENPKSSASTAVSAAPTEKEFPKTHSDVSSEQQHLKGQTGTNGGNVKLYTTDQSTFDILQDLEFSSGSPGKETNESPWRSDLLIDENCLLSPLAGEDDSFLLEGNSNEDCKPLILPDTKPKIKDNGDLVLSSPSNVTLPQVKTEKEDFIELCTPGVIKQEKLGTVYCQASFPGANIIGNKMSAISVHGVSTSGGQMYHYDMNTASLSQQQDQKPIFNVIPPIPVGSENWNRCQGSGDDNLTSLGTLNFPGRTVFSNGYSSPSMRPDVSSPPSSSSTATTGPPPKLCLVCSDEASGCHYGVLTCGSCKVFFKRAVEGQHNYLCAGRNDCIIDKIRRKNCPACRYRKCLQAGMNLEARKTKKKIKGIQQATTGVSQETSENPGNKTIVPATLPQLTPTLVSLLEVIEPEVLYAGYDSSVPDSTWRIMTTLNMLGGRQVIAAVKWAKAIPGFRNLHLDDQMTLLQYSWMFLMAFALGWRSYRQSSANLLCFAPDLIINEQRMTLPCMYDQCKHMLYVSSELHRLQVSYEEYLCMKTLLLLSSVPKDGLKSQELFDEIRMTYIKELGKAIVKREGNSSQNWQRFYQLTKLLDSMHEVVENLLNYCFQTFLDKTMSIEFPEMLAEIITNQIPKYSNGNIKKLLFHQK
# Method: as §4, §5
compound,measurement,setting,value
"CCCCN(C)C(=O)CCCCCCCCCC[C@@H]1Cc2cc(O)ccc2[C@H]2CC[C@]3(C)[C@@H](O)CC[C@H]3[C@H]12 [ICI-164,384]","effect of hPR-A co-expression on activity of ICI-164,384",human estrogen receptor [1]; FIG. 11B,did not affect the activity
same,inhibition of 17-β-estradiol induced ER transcriptional activation,human estrogen receptor [2],"can be inhibited by addition of the pure anti-estrogen ICI-164,384"
same,"effect of hPR-B co-expression on activity of ICI-164,384",human estrogen receptor [3],did not affect the activity
CN(C)c1ccc([C@H]2C[C@]3(C)[C@@H](CC[C@]3(O)CCCO)[C@@H]3CCC4=CC(=O)CCC4=C32)cc1 [ZK98299],IC50,"human estrogen receptor [1]; 10^-7 M 17-β-estradiol, read-out: half maximal inhibition (IC50) of ER in the presence of hPR-A",3 nM
same,"efficacy compared to the pure anti-estrogen ICI-164,384","human estrogen receptor [1]; PR-A co-expressed, 100% = 10^-7 M 17-β-estradiol + 10^-6 M ICI-164,384, FIG. 12",70%
same,inhibition of GR function via PR-A,"[4]; MMTV promoter, dexamethasone present, FIG. 8A",mediated an inhibition of GR function; also recorded: promotes PR-A repressor function
same,affinity for AR,AR,low affinity for AR
same,effect on DHT-induced AR activity,human androgen receptor [5],minimal direct effects on AR transcriptional activity
same,effect on PR DNA binding,PR,retards DNA binding; also recorded: interferes with DNA binding
same,anti-estrogenic activity,ER; HS578T cells,both anti-progestins functioned as anti-estrogens
same,anti-estrogenic activity,ER; HepG2 cells,neither anti-progestin exhibited any anti-estrogenic activity
same,effect on DHT-induced AR activity in the presence of PR-A,human androgen receptor [6],addition of PR-A to the cells increased this compound's sensitivity
C[C@@H]1C[C@H]2[C@@H]3CCC4=CC(=O)C=C[C@]4(C)[C@@]3(F)[C@@H](O)C[C@]2(C)[C@@]1(O)C(=O)CO [dexamethasone],"dexamethasone induction of GR activity, of control levels",[4],about 53%
same,maximally activated GR (100% value),[7],> 450 normalized response
same,maximal activity of GR (100% value),"[7]; cv-1 cells, 0.01 µM",> 450 fold normalized response
same,induction of MMTV promoter activity,"[7]; cv-1 cells, 24 h, 0.1 µM",450 fold
"CC(=O)O[C@]1(C(C)=O)CC[C@H]2[C@@H]3C[C@H](C)C4=CC(=O)CC[C@]4(C)[C@H]3CC[C@@]21C [medroxyprogesterone acetate, Medroxyprogesterone acetate]",anti-estrogen activity of PR agonists,"human estrogen receptor [1]; PR-A co-expressed, 10^-7 M 17-β-estradiol, FIG. 13",considerably less effective

# From US5506102A (priority 1993, dated 1996)
